biological target: human TYK2 (JH2domain-pseudokinase) (Homo sapiens (Human), UniProt P29597); test: TYK2 JH2 Domain Binding Assay (KINOMEscan, DiscoveRx); conditions: 11-point dilution, duplicate
Summary of the method: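 Kd from duplicate 11-point 3-fold dilutions starting at 30,000 nM, fitted by Hill equation with slope fixed at −1. Compounds (final 0.9% DMSO) displace DNA-tagged HEK293-expressed TYK2 JH2 fusion (<0.1 nM) from ligand-coated beads over 1 h at room temperature; eluted kinase read by qPCR.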

human TYK2 (JH2domain-pseudokinase), sequence (P29597 556-888): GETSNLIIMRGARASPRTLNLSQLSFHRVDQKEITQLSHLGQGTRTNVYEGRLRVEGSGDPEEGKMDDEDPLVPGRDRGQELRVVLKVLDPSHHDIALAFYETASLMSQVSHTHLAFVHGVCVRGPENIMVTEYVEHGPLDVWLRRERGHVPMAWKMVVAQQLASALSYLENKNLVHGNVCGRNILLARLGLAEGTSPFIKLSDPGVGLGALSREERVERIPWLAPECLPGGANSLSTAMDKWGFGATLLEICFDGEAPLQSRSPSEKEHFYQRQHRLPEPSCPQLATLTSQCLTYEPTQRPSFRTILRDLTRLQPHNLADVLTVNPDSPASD

Row | Structure (SMILES) | Kd
1 | CN(c1cc(-c2cncn2C)ccc1Nc1cc(NC(=O)C2CC2(F)F)nc2[nH]c(C(F)F)nc12)S(C)(=O)=O (stereo not shown) [I-380, N-(2-(difluoromethyl)-7-((4-(1-methyl-1H-imidazol-5-yl)-2-(N-methylmethylsulfonamido)phenyl)amino)-3H-imidazo[4,5-b]pyridin-5-yl)-2,2-difluorocyclopropane-1-carboxamide] | 0.5 to 1 nM
2 | Cc1nc2c(Nc3ccc(-c4cncn4C)cc3S(C)(=O)=O)cc(NC(=O)C3CC3(F)F)nc2[nH]1 (stereo not shown) [I-382, 2,2-difluoro-N-(2-methyl-7-((4-(1-methyl-1H-imidazol-5-yl)-2-(methylsulfonyl)phenyl)amino)-3H-imidazo[4,5-b]pyridin-5-yl)cyclopropane-1-carboxamide] | 0.1 to 0.5 nM
3 | COc1cc(Nc2ccc(-c3ccn(C)n3)cc2S(C)(=O)=O)c2nc(C)[nH]c2n1 [I-383, 5-methoxy-2-methyl-N-(4-(1-methyl-1H-pyrazol-3-yl)-2-(methylsulfonyl)phenyl)-3H-imidazo[4,5-b]pyridin-7-amine] | > 10 nM
4 | Cc1nc2c(Nc3ccc(-c4cncn4C)cc3N(C)S(C)(=O)=O)cc(NC(=O)C3CC3(F)F)nc2[nH]1 (stereo not shown) [I-384, 2,2-difluoro-N-(2-methyl-7-((4-(1-methyl-1H-imidazol-5-yl)-2-(N-methylmethylsulfonamido)phenyl)amino)-3H-imidazo[4,5-b]pyridin-5-yl)cyclopropane-1-carboxamide] | 0.5 to 1 nM
5 | CN(c1cc(-c2cnn(C)c2)ccc1Nc1cc(NC(=O)C2CC2(F)F)nc2[nH]c(C(F)F)nc12)S(C)(=O)=O (stereo not shown) [I-385, N-(2-(difluoromethyl)-7-((4-(1-methyl-1H-pyrazol-4-yl)-2-(N-methylmethylsulfonamido)phenyl)amino)-3H-imidazo[4,5-b]pyridin-5-yl)-2,2-difluorocyclopropane-1-carboxamide] | 0.5 to 1 nM
6 | Cc1nc2c(Nc3ccc(C4CCCCO4)cc3S(C)(=O)=O)cc(NC(=O)C3CC3)nc2[nH]1 (stereo not shown) [I-387, N-(2-methyl-7-((2-(methylsulfonyl)-4-(tetrahydro-2H-pyran-2-yl)phenyl)amino)-3H-imidazo[4,5-b]pyridin-5-yl)cyclopropanecarboxamide] | < 0.1 nM
7 | Cc1nc2c(Nc3ccc(C4CCOC4)cc3S(C)(=O)=O)cc(NC(=O)C3CC3)nc2[nH]1 (stereo not shown) [I-388, N-(2-methyl-7-((2-(methylsulfonyl)-4-(tetrahydrofuran-3-yl)phenyl)amino)-3H-imidazo[4,5-b]pyridin-5-yl)cyclopropanecarboxamide] | 0.1 to 0.5 nM
8 | Cc1nc2c(Nc3ccc(C4CCCOC4)cc3S(C)(=O)=O)cc(NC(=O)C3CC3)nc2[nH]1 (stereo not shown) [I-390, N-(2-methyl-7-((2-(methylsulfonyl)-4-(tetrahydro-2H-pyran-3-yl)phenyl)amino)-3H-imidazo[4,5-b]pyridin-5-yl)cyclopropanecarboxamide] | 0.1 to 0.5 nM
9 | Cc1nc2c(Nc3ccc(-c4cnn(C)c4C)cc3S(C)(=O)=O)cc(Nc3ccc(C(C)C)c(C#N)n3)nc2[nH]1 [I-394] | 0.1 to 0.5 nM
10 | Cc1ncc(Nc2cc(Nc3ccc(C4CCCCO4)cc3S(C)(=O)=O)c3nc(C(F)F)[nH]c3n2)nc1C (stereo not shown) [I-397, 2-(difluoromethyl)-N5-(5,6-dimethylpyrazin-2-yl)-N7-(2-(methylsulfonyl)-4-(tetrahydro-2H-pyran-2-yl)phenyl)-3H-imidazo[4,5-b]pyridine-5,7-diamine] | 0.1 to 0.5 nM
11 | Cc1nc2c(Nc3ccc(C4CCCCO4)cc3S(C)(=O)=O)cc(Nc3cnc(C)c(C)n3)nc2[nH]1 (stereo not shown) [I-398, N5-(5,6-dimethylpyrazin-2-yl)-2-methyl-N7-(2-(methylsulfonyl)-4-(tetrahydro-2H-pyran-2-yl)phenyl)-3H-imidazo[4,5-b]pyridine-5,7-diamine] | < 0.1 nM
12 | COc1c(Nc2cc(Nc3ccc(NCCCCl)c(C#N)n3)nc3[nH]c(C)nc23)cccc1-c1nnn(C)n1 [I-403, 3-((3-chloropropyl)amino)-6-((7-((2-methoxy-3-(2-methyl-2H-tetrazol-5-yl)phenyl)amino)-2-methyl-3H-imidazo[4,5-b]pyridin-5-yl)amino)picolinonitrile] | 0.5 to 1 nM
13 | Cc1cn(C)nc1-c1ccc(Nc2cc(NC(=O)[C@@H]3C[C@@H]3F)nc3[nH]c(C(F)F)nc23)c(S(C)(=O)=O)c1 [I-406, (1 S,2S)—N-(2-(difluoromethyl)-7-((4-(1,4-dimethyl-1H-pyrazol-3-yl)-2-(methylsulfonyl)phenyl)amino)-3H-imidazo[4,5-b]pyridin-5-yl)-2-fluorocyclopropane-1-carboxamide] | < 0.1 nM
14 | Cc1cn(C)nc1-c1ccc(Nc2cc(NC(=O)[C@H]3C[C@H]3F)nc3[nH]c(C(F)F)nc23)c(S(C)(=O)=O)c1 [I-407, (1R,2R)—N-(2-(difluoromethyl)-7-((4-(1,4-dimethyl-1H-pyrazol-3-yl)-2-(methylsulfonyl)phenyl)amino)-3H-imidazo[4,5-b]pyridin-5-yl)-2-fluorocyclopropane-1-carboxamide] | 0.1 to 0.5 nM
15 | CS(=O)(=O)c1cc(C2CC2)ccc1Nc1cc(Nc2cc3n(n2)CCCCC3)nc2[nH]c(C(F)F)nc12 [I-409, N7-(4-cyclopropyl-2-(methylsulfonyl)phenyl)-2-(difluoromethyl)-N5-(5,6,7,8-tetrahydro-4H-pyrazolo[1,5-a]azepin-2-yl)-3H-imidazo[4,5-b]pyridine-5,7-diamine] | 0.1 to 0.5 nM
16 | Cc1nc2c(Nc3ccc(C4CC4)cc3S(C)(=O)=O)cc(Nc3cc4n(n3)CCCCC4)nc2[nH]1 [I-410, N7-(4-cyclopropyl-2-(methylsulfonyl)phenyl)-2-methyl-N5-(5,6,7,8-tetrahydro-4H-pyrazolo[1,5-a]azepin-2-yl)-3H-imidazo[4,5-b]pyridine-5,7-diamine] | 0.1 to 0.5 nM
17 | Cc1nc2c(Nc3ccc(C4CCC4)cc3S(C)(=O)=O)cc(NC(=O)[C@@H]3CC3(F)F)nc2[nH]1 [I-411, (S)—N-(7-((4-cyclobutyl-2-(methylsulfonyl)phenyl)amino)-2-methyl-3H-imidazo[4,5-b]pyridin-5-yl)-2,2-difluorocyclopropane-1-carboxamide] | 1 to 10 nM

Second part, the compound after the results:

Row | Kd | Structure (SMILES)
18 | 1 to 10 nM | Cn1cnc(-c2ccc(Nc3cc(NC(=O)C4CC4(F)F)nc4[nH]c(C(F)F)nc34)c(S(C)(=O)=O)c2)c1 (stereo not shown) [I-381, N-(2-(difluoromethyl)-7-((4-(1-methyl-1H-imidazol-4-yl)-2-(methylsulfonyl)phenyl)amino)-3H-imidazo[4,5-b]pyridin-5-yl)-2,2-difluorocyclopropane-1-carboxamide]
19 | 0.5 to 1 nM | Cn1ccc(-c2ccc(Nc3cc(NC(=O)C4CC4(F)F)nc4[nH]c(C(F)F)nc34)c(S(C)(=O)=O)c2)n1 (stereo not shown) [I-386, N-(2-(difluoromethyl)-7-((4-(1-methyl-1H-pyrazol-3-yl)-2-(methylsulfonyl)phenyl)amino)-3H-imidazo[4,5-b]pyridin-5-yl)-2,2-difluorocyclopropane-1-carboxamide]
20 | 0.5 to 1 nM | CS(=O)(=O)c1cc(C2CCOC2)ccc1Nc1cc(NC(=O)C2CC2)nc2[nH]c(C(F)F)nc12 (stereo not shown) [I-389, N-(2-(difluoromethyl)-7-((2-(methylsulfonyl)-4-(tetrahydrofuran-3-yl)phenyl)amino)-3H-imidazo[4,5-b]pyridin-5-yl)cyclopropanecarboxamide]
21 | 0.1 to 0.5 nM | CS(=O)(=O)c1cc(C2CCCOC2)ccc1Nc1cc(NC(=O)C2CC2)nc2[nH]c(C(F)F)nc12 (stereo not shown) [I-391, N-(2-(difluoromethyl)-7-((2-(methylsulfonyl)-4-(tetrahydro-2H-pyran-3-yl)phenyl)amino)-3H-imidazo[4,5-b]pyridin-5-yl)cyclopropanecarboxamide]
22 | < 0.1 nM | CS(=O)(=O)c1ccccc1Nc1cc(Nc2cc3c(nn2)CCC3)nc2[nH]c(C(F)F)nc12 [I-392]
23 | 0.5 to 1 nM | COCCCc1csc(-c2ccc(Nc3cc(NC(=O)C4CC4)nc4[nH]c(C(F)F)nc34)c(S(C)(=O)=O)c2)n1 [I-393]
24 | 0.1 to 0.5 nM | CN=[S@](C)(=O)c1ccccc1Nc1cc(NC(=O)C2CC2)nc2[nH]c(C(F)F)nc12 [I-395]
25 | 1 to 10 nM | CN=[S@@](C)(=O)c1ccccc1Nc1cc(NC(=O)C2CC2)nc2[nH]c(C(F)F)nc12 [I-396]
26 | > 10 nM | CC1(C)CC(c2ccc(Nc3cc(NC(=O)C4CC4)nc4[nH]c(C(F)F)nc34)c(S(C)(=O)=O)c2)CC(C)(C)O1 [I-399]
27 | 0.1 to 0.5 nM | COC(C)c1ccc(Nc2cc(NC(=O)C3CC3)nc3[nH]c(C)nc23)c(S(C)(=O)=O)c1 (stereo not shown) [I-400, N-(7-((4-(1-methoxyethyl)-2-(methylsulfonyl)phenyl)amino)-2-methyl-3H-imidazo[4,5-b]pyridin-5-yl)cyclopropanecarboxamide]
28 | < 0.1 nM | CS(=O)(=O)c1cc(C2CCCCO2)ccc1Nc1cc(NC(=O)C2CC2)nc2[nH]c(C(F)F)nc12 (stereo not shown) [I-401, N-(2-(difluoromethyl)-7-((2-(methylsulfonyl)-4-(tetrahydro-2H-pyran-2-yl)phenyl)amino)-3H-imidazo[4,5-b]pyridin-5-yl)cyclopropanecarboxamide]
29 | 0.5 to 1 nM | COC(C)c1ccc(Nc2cc(NC(=O)C3CC3)nc3[nH]c(C(F)F)nc23)c(S(C)(=O)=O)c1 (stereo not shown) [I-402, N-(2-(difluoromethyl)-7-((4-(1-methoxyethyl)-2-(methylsulfonyl)phenyl)amino)-3H-imidazo[4,5-b]pyridin-5-yl)cyclopropanecarboxamide]
30 | 0.1 to 0.5 nM | Cn1cncc1-c1ccc(Nc2cc(NC(=O)[C@H]3C[C@H]3F)nc3[nH]c(C(F)F)nc23)c(S(C)(=O)=O)c1 [I-405, (1R,2R)—N-(2-(difluoromethyl)-7-((4-(1-methyl-1H-imidazol-5-yl)-2-(methylsulfonyl)phenyl)amino)-3H-imidazo[4,5-b]pyridin-5-yl)-2-fluorocyclopropane-1-carboxamide]
31 | 0.5 to 1 nM | CP(C)(=O)c1cc(C2CCOCC2)ccc1Nc1cc(NC(=O)C2CC2)nc2[nH]c(C(F)F)nc12 [I-408, N-(2-(difluoromethyl)-7-((2-(dimethylphosphoryl)-4-(tetrahydro-2H-pyran-4-yl)phenyl)amino)-3H-imidazo[4,5-b]pyridin-5-yl)cyclopropanecarboxamide]
